# Reference: patent publication US20210261539A1, “COMPOUND HAVING BET INHIBITORY ACTIVITY AND PREPARATION METHOD AND USE THEREFOR” (Shanghai Haihe Pharmaceutical Co., Ltd., priority 2018, published 2021)
# Biological target: T1, BRD4 BD1 (Homo sapiens, UniProt O60885)
# T1 construct: Protein BRD4 BD1 used in the assay was purchased from Active Motif (cat. 31380); purchased Active Motif 31380
# Experiment: HTRF in vitro enzyme activity assay, inhibition of BRD4 BD1 binding to acetylated H4 peptide
# Settings: IC50 values of the compounds against BRD4 BD1 binding; class symbols A/B/C
# Procedure: Effect Examples: In Vitro Enzyme Activity Assay
# Half inhibitory activity (IC50) of the compounds of the invention against the bromodomain protein BRD4 BD1 was determined in the present Examples.
# The compounds of the invention were tested for inhibitory activity against BRD4 BD1 with Homogeneous Time-Resolved Fluorescence (HTRF).
# 2. Reagents, Consumable Materials and Instruments:
# Protein BRD4 BD1 used in the assay was purchased from Active Motif (cat. 31380); streptavidin XL-665 (#610SAXLA) and EPIgeneous Binding Domain Kit A (#62BDAPEG) were both purchased from Cisbio Bioassays; [Lys(5,8,12,16)Ac] H4(1-21)-biotin (#64989), [Lys(5,8,12,16)Ac]H4(1-25) were available from Anaspec; OTX015 and ABBV-075 were purchased from Selleckchem Co. The 384-well ProxiPlate (#6008280) was purchased from Perkinelmer Co. The Laboratory microplate reader (Envision 2104) was available from PerkinElmer Co. The water used in the assay was Millipore-Q pure water.
# 3. Formulation of the Compound
# 10 mM DMSO stock solution of the test compound was diluted to 1 mM in DMSO, and then diluted 10-fold in Binding Domain dilution buffer (purchased from Cisbio Bioassays) for use (DMSO concentration in the final system was 0.1%), including 5 concentrations in 1:5 gradient.
# 4. Assay Protocol: 1 Batch, 2 Repeats
# 1) 5 μL of test compound was transferred to 45 μL Binding Domain dilution buffer.
# 2) 2 μL of 1× compound (4 μL Binding Domain dilution buffer: positive control; 6 μL enzyme buffer (purchased from Cisbio Bioassays): negative control) was transferred to a reaction plate.
# 3) 4 μL of 5×BRD 4(1) was added to the reaction plate (30 nM in the final system).
# 4) 4 μL of 5×[Lys(5,8,12,16)Ac] H4(1-21)-biotin was added to the reaction plate, and the plate was covered with a film and incubated at 37° C. for 30 min.
# 5) A detection mixture of SA-XL665 (2×) and anti-H3K9me0-Eu(K) (2×) was prepared in detection buffer (purchased from Cisbio Bioassays).
# 6) 10 μL of detection mixture (2×) was added to each well, incubated at RT for 3 h. The mp value was read by microplate reader Envision with the following parameters: […]
row,SMILES,IC50 [nM]
1,"CC1C(=O)N(C)c2ccc(N3C(=O)c4cccc(F)c4C3c3cccnc3)nc2N1C1CC1 (single isomer, unassigned) [Example A75-P3, 4-cyclopropyl-6-(7-fluoro-3-oxo-1-(pyridin-3-yl)isoindolin-2-yl)-1,3-dimethyl-3,4-dihydropyrido[2,3-b]pyrazin-2(1H)-one]",≤ 10
2,"C[C@@H]1C(=O)N(C)c2ccc(N3C(=O)c4cccnc4C3(O)c3ccccc3)nc2N1C (single isomer, unassigned) [Example A76-P1]",≤ 10
3,"CC1C(=O)N(C)c2ccc(N3C(=O)c4cc(C(=O)N5CCN(C)CC5)ccc4C3c3ccc(F)cc3)nc2N1C1CC1 (single isomer, unassigned) [Example A78-P4, 4-cyclopropyl-6-(1-(4-fluorophenyl)-5-(4-methylpiperazine-1-carbonyl)-3-oxoisoindolin-2-yl)-1,3-dimethyl-3,4-dihydropyrido[2,3-b]pyrazin-2(1H)-one]",≤ 10
4,"CC1C(=O)N(C)c2ccc(N3C(=O)c4c(cccc4C(C)(C)O)C3c3ccc(F)cc3)nc2N1C1CC1 (single isomer, unassigned) [Example A79-P4, 4-cyclopropyl-6-(1-(4-fluorophenyl)-4-(2-hydroxyprop-2-yl)-3-oxoisoindolin-2-yl)-1,3-dimethyl-3,4-dihydropyrido[2,3-b]pyrazin-2(1H)-one]",≤ 10
5,"COC(=O)c1cccc2c1C(=O)N(c1ccc3c(n1)N(C1CC1)C(C)C(=O)N3C)C2c1ccc(F)cc1 (single isomer, unassigned) [Example A80-P3, Methyl 2-(4-cyclopropyl-1,3-dimethyl-2-oxo-1,2,3,4-tetrahydropyrido[2,3-b]pyrazin-6-yl)-1-(4-fluorophenyl)-3-oxoisoindoline-4-carboxylate]",≤ 10
6,"CC1C(=O)N(C)c2ccc(N3C(=O)c4c(C(=O)O)cccc4C3c3ccc(F)cc3)nc2N1C1CC1 (single isomer, unassigned) [Example A81-P4]",≤ 10
7,"CC1C(=O)N(C)c2ccc(N3C(=O)c4c(C(=O)N5CCN(C)CC5)cccc4C3c3ccc(F)cc3)nc2N1C1CC1 (single isomer, unassigned) [Example A82-P4]",≤ 10
8,"CNC(=O)c1cccc2c1C(=O)N(c1ccc3c(n1)N(C1CC1)C(C)C(=O)N3C)C2c1cccnc1 (single isomer, unassigned) [Example A83-P3]",≤ 10
9,"COC(=O)c1cccc2c1C(=O)N(c1ccc3c(n1)N(C1CC1)C(C)C(=O)N3C)C2c1cccnc1 (single isomer, unassigned) [Example A84-P4, Methyl 2-(4-cyclopropyl-1,3-dimethyl-2-oxo-1,2,3,4-tetrahydropyrido[2,3-b]pyrazin-6-yl)-3-oxo-1-(pyridin-3-yl)isoindoline-4-carboxylate]",≤ 10
10,"CNC(=O)c1cccc2c1C(=O)N(c1ccc3c(n1)N(C)C(C)C(=O)N3C)C2c1ccccc1 (single isomer, unassigned) [Example A88-P4, N-methyl-3-oxo-1-phenyl-2-(1,3,4-trimethyl-2-oxo-1,2,3,4-tetrahydropyrido[2,3-b]pyrazin-6-yl)isoindoline-4-carboxamide]",≤ 10
11,"C[C@@H]1C(=O)N(C)c2cnc(N3C(=O)c4ccccc4C3c3ccc(F)nc3)nc2N1C (single isomer, unassigned) [Example A91-P2]",≤ 10
12,"CC1C(=O)N(C)c2cnc(N3C(=O)c4ccccc4C3c3ccccc3)nc2N1C1CC1 (single isomer, unassigned) [Example A92-P4, 8-cyclopropyl-5,7-dimethyl-2-(1-oxo-3-phenylisoindolin-2-yl)-7,8-dihydropteridin-6(5H)-one]",≤ 10
13,"CC1C(=O)N(C)c2cnc(N3C(=O)c4ccccc4C3c3ccc(C(F)(F)F)cc3)nc2N1C1CC1 (single isomer, unassigned) [Example A93-P4, 8-cyclopropyl-5,7-dimethyl-2-(1-oxo-3-(4-(trifluoromethyl)phenyl)isoindolin-2-yl)-7,8-dihydropteridin-6(5H)-one]",≤ 10
14,"C[C@@H]1C(=O)N(C)c2cnc(N3C(=O)c4c(cccc4C(C)(C)O)C3c3ccc(F)cc3)nc2N1C (single isomer, unassigned) [Example A96-P1]",≤ 10
15,"C[C@@H]1C(=O)N(C)c2cnc(N3C(=O)c4cc(F)ccc4C3c3cccnc3)nc2N1C (single isomer, unassigned) [Example A97-P1]",≤ 10
16,"CC1C(=O)N(C)c2cnc(N3C(=O)c4ccccc4C3c3cccnc3)nc2N1C1CC1 (single isomer, unassigned) [Example A98-P3, 8-cyclopropyl-5,7-dimethyl-2-(1-oxo-3-(pyridin-3-yl)isoindolin-2-yl)-7,8-dihydropteridin-6(5H)-one]",≤ 10
17,"CC1C(=O)N(C)c2cnc(N3C(=O)c4ccccc4C3c3ccc(F)nc3)nc2N1C1CC1 (single isomer, unassigned) [Example A101-P3, 8-cyclopropyl-2-(1-(6-fluoropyridin-3-yl)-3-oxoisoindol-2-yl)-5,7-dimethyl-7,8-dihydropteridin-6(5H)-one]",≤ 10
18,"C[C@H]1Oc2nc(N3C(=O)c4ccccc4C3c3ccc(F)nc3)ncc2N(C)C1=O (single isomer, unassigned) [Example A105-P1]",10 to 100
19,"CC1Oc2cc(N3C(=O)c4ccccc4C3c3cccnc3)cc(F)c2N(C)C1=O (single isomer, unassigned) [Example A107-P3, 1-methyl-3-methyl-6-(1-oxo-3-(pyridin-3-yl)isoindolin-2-yl)-8-fluoro-1H-benzo[2,3-B][1,4]oxazin-2(3H)-one]",10 to 100
20,"C[C@H]1Oc2nc(N3C(=O)c4ccccc4C3c3ccc(F)cn3)ccc2N(C)C1=O (single isomer, unassigned) [Example A110-P1]",≤ 10
21,"C[C@H]1Oc2nc(N3C(=O)c4ccccc4C3c3ccc(F)nc3)ccc2N(C)C1=O (single isomer, unassigned) [Example A111-P1]",≤ 10
22,"Cc1ccc(C2c3ccccc3C(=O)N2c2ccc3c(n2)O[C@H](C)C(=O)N3C)cn1 (single isomer, unassigned) [Example A112-P1]",≤ 10
23,"Cc1ccc(C2c3ccccc3C(=O)N2c2cc3c(cn2)N(C)C(=O)[C@@H](C)O3)cn1 (single isomer, unassigned) [Example A113-P1]",100 to 1000
24,"C[C@H]1Oc2nc(N3C(=O)c4sccc4C3c3cccnc3)ccc2N(C)C1=O (single isomer, unassigned) [Example A115-P1]",≤ 10
25,"C[C@H]1Oc2nc(N3C(=O)c4c(cccc4C(C)(C)O)C3c3ccc(F)cc3)ccc2N(C)C1=O (single isomer, unassigned) [Example A119-P1]",≤ 10
26,"CC1Oc2nc(N3C(=O)c4ccccc4C3c3ccc(F)cc3)ccc2N(CC(F)(F)F)C1=O (single isomer, unassigned) [Example A120-P1, 6-(1-(4-fluorophenyl)-3-oxoisoindol-2-yl)-3-methyl-1-(2,2,2-trifluoroethyl)-1H-pyrido[2,3-B][1,4]oxazin-2(3H)-one]",100 to 1000
27,"C[C@H]1Oc2nc(N3C(=O)c4ccccc4C3c3ccccn3)ccc2N(C)C1=O (single isomer, unassigned) [Example A121-P1]",≤ 10
28,"C[C@H]1Oc2nc(N3C(=O)c4ccccc4C3c3ccc(Cl)nc3)ccc2N(C)C1=O (single isomer, unassigned) [Example A122-P1]",10 to 100
